The values that follow come from publication PMC6149971, “In Vivo and In Vitro Activities and ADME-Tox Profile of a Quinolizidine-Modified 4-Aminoquinoline: A Potent Anti-P. falciparum and Anti-P. vivax Blood-Stage Antimalarial” (Molecules : A Journal of Synthetic Chemistry and Natural …, 2017).

Values joined by “and” are separate entries in the source; they are usually repeats but may differ in a detail not shown here. Equal entries are not always repeated.

One data set relates to P. falciparum D10 (CQ-S). On the set-up: method as in PMID 22901673. The note with it: 72 h incubation, pLDH method, mean of 3 experiments; data already published; cited from earlier work.
Another data set deals with T1, hERG (Homo sapiens, UniProt Q12809).
T1 construct: expressed in transfected cells
The data set can be described thus: hERG [3H]-astemizole radioligand binding assay. The note with it: HEK293 cell membranes, preliminary experiments. As for the experimental part: [^3H]-astemizole (PerkinElmer ITALIA Spa, Milan, Italy) radioligand binding assays were performed in HEK293 cells membranes stably transfected with the hERG (U04270); non-specific binding was evaluated in the presence of an excess of 10 µM cold astemizole. Experiments were performed at 22 °C for 60 min in triplicate and compounds tested in a range from 0.03 µM to 30 µM. Two separate experiments were performed and data analyzed with non-linear fitting using a four-parameter logistic.
(In general: Block of hERG is tested as a sign of cardiac risk.)

Another data set has as its system P. falciparum W-2 (CQ-R). The arrangement: method as in PMID 22901673. The note with it: 72 h incubation, pLDH method, mean of 3 experiments; data already published; cited from earlier work.
A further data set has as its system P. vivax field isolates. The data set can be described thus: In vitro assay against P. vivax field isolates. Format: cell-based. The note with it: for IC50: 10 field isolates from the Thai–Burmese border, mean, read-out: P. vivax IC50, field isolates. An excerpt: Ten P. vivax isolates were collected from June to July 2010 from malaria patients attending the Shoklo Malaria Research Unit (SMRU) clinics, Mae Sot region of the Tak Province in north-western Thailand under the ethical guidelines in the approved protocol OXTREC 027-05 (Centre for Clinical Vaccinology and Tropical Medicine, University of Oxford, Oxford, UK). These samples were collected from patients with no prior antimalarial therapy and with microscopically confirmed P. vivax. After written consent, blood samples were collected by venepuncture in 5 mL volume lithium heparinized tubes, which were then transported to the laboratory at SMRU within 5 h of collection. The ten isolates were chosen for testing because the majority (>80%) of the parasites were at the mid trophozoite stage (around 20 h post invasion) and no schizonts were detected.

The test system of a further data set is P. berghei ANKA. The data set can be described thus: Standard four-day suppressive test, P. berghei. The note with it: CD1 mice, oral, once a day for four days, parasitaemia on day 4. Format: in vivo. As for the experimental part:
Groups of five CD1 mice were inoculated i.v. with 4 × 10^6 infected erythrocytes/mice. The compound, dissolved in standard suspending formula (SSV) (0.5% sodium carboxymethylcellulose, 0.5% benzyl alcohol, 0.4% Tween 80, 0.9% NaCl), was administered orally, once a day for a period of four days, starting two hours post-infection. […] Parasitaemia was determined by microscopic examination of Giemsa-stained blood films taken on day four, processed using MICROSOFT® EXCEL spreadsheets (Microsoft Corp., Redmond, WA, USA), and expressed as percentages of inhibition from the arithmetic mean parasitaemias of each group in relation to the untreated group. ED50 and ED90 values were calculated by GraphPad Prism 6 (GraphPad Software Inc, La Jolla, CA, USA).

The nature of data set [1]: Pharmacokinetics in CD-1 mice after oral administration. The format is in vivo, mouse. As for the experimental part:
Samples from the pharmacokinetic studies were analyzed under the following conditions: UPLC interfaced with a Premiere XE triple Quadrupole, Waters. A gradient from 2 to 100% (Water, MeOH, 5 mM Ammonium Acetate) over 1.3 min was used in Acquity HSS T3 (dimensions 2.1 by 50 mm, 1.8 µm column, 40 °C temperature, flow rate 0.5 mL/min). Detection was performed in MRM (ESI positive, Q1/Q3 330.16/152.00, Cone Voltage 45 V; Extractor 5 V; Capillary 3.4 kV). The limit of detection was 1 ng/mL. Pharmacokinetic parameters were determined by Non-Compartmental Analysis, using the linear trapezoidal rule and uniform weight.
Pharmacokinetic data were collected in mice by testing the racemate and the enantiomers at the same single dose, and vehicle-utilized for in vivo studies (see composition in paragraph 4.4). Briefly, male CD-1 mice (Charles River Laboratories) weighing 18–22 g received single dose (10 mg/kg) oral administrations of the AM1 racemate and single enantiomers, each dissolved in SSV. For each experiment, twenty-four mice/dose and three mice/time-point were used. Blood samples were collected at eight selected time-points (15, 30 and 60 min; 2, 4, 6, 8 and 24 h) under ethyl ether anaesthesia. The heparinized tubes containing blood samples were immediately placed on ice and centrifuged, and the supernatant collected and frozen at −80 °C prior to analysis. Pharmacokinetic plasma samples (spiked with internal standard) were filtered (Sirocco filter plate, Waters) under vacuum, and 5 µL analysed by LC-MS/MS.

A further data set addresses T2, CYP1A2 (Homo sapiens, UniProt P05177).
T2 sequence (P05177 1-516): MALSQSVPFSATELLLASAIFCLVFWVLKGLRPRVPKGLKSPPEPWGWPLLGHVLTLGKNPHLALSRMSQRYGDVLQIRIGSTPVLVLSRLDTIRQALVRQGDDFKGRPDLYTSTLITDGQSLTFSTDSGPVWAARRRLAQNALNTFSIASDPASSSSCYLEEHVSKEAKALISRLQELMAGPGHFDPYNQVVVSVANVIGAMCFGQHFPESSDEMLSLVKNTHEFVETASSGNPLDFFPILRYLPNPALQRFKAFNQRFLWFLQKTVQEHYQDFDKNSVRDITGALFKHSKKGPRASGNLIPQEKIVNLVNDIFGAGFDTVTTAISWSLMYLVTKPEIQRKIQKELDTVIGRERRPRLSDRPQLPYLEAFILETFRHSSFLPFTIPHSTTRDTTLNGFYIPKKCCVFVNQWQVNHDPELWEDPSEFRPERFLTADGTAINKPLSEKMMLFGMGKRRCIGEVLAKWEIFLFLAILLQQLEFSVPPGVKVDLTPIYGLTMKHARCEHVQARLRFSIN
Description: in vitro.

In another data set the target is CYP3A4 (Homo sapiens, UniProt P08684). The data set can be described thus: in vitro.
For a further data set, the target named is CYP2D6 (Homo sapiens, UniProt P10635). Description: in vitro.
A further data set addresses CYP2C19 (Homo sapiens, UniProt P33261). The data set can be described thus: in vitro.
Another data set concerns the target CYP2C9 (Homo sapiens, UniProt P11712). Description: in vitro.
On the set-up of data set [2]: method as in PMID 19651905. The note with it: pH 7.4; cited from earlier work.
Data set [3] relates to chloroquine-sensitive and resistant P. falciparum strains. Description: In vitro antimalarial activity, range over the strain panel. The format is cell-based. The note with it: D10, W-2, FCR1, FCR3, TM91C235; range over strains and forms; read-out: IC50 range against CQ-S and CQ-R P. falciparum strains.
Where [4] appears, read: CD-1 mice, 10 mg/kg oral, single dose in SSV, plasma.
[5] abbreviates: male, CD-1, mouse, in vivo, po, 10 mg/kg.

Sequence of CYP2D6 (P10635 whole entry): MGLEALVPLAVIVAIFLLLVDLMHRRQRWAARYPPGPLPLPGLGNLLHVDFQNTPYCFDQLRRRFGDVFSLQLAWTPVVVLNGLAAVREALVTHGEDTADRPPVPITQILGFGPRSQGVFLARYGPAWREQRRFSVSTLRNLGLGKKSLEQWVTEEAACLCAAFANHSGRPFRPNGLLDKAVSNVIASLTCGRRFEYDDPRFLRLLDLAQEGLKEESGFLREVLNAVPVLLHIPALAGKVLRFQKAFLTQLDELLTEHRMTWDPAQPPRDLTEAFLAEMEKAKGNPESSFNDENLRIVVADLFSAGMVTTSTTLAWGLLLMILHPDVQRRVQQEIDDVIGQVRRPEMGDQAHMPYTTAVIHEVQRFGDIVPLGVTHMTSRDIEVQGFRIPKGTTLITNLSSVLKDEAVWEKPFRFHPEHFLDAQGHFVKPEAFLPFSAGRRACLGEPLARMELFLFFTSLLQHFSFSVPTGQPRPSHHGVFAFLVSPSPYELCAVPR
Sequence of CYP2C9 (P11712 whole entry): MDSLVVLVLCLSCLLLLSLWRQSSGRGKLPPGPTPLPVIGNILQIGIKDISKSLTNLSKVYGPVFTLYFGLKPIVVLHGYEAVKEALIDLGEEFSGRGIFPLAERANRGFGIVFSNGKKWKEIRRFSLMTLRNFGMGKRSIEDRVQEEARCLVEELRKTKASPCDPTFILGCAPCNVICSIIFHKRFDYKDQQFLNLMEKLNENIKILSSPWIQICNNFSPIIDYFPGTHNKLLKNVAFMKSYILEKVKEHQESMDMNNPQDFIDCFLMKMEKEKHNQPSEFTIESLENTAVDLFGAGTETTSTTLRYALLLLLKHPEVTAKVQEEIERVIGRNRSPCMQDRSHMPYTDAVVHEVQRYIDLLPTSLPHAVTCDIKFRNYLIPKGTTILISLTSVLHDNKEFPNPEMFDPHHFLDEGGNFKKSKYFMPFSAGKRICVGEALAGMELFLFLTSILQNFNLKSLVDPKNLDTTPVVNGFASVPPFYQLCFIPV
T1 sequence (Q12809 whole entry): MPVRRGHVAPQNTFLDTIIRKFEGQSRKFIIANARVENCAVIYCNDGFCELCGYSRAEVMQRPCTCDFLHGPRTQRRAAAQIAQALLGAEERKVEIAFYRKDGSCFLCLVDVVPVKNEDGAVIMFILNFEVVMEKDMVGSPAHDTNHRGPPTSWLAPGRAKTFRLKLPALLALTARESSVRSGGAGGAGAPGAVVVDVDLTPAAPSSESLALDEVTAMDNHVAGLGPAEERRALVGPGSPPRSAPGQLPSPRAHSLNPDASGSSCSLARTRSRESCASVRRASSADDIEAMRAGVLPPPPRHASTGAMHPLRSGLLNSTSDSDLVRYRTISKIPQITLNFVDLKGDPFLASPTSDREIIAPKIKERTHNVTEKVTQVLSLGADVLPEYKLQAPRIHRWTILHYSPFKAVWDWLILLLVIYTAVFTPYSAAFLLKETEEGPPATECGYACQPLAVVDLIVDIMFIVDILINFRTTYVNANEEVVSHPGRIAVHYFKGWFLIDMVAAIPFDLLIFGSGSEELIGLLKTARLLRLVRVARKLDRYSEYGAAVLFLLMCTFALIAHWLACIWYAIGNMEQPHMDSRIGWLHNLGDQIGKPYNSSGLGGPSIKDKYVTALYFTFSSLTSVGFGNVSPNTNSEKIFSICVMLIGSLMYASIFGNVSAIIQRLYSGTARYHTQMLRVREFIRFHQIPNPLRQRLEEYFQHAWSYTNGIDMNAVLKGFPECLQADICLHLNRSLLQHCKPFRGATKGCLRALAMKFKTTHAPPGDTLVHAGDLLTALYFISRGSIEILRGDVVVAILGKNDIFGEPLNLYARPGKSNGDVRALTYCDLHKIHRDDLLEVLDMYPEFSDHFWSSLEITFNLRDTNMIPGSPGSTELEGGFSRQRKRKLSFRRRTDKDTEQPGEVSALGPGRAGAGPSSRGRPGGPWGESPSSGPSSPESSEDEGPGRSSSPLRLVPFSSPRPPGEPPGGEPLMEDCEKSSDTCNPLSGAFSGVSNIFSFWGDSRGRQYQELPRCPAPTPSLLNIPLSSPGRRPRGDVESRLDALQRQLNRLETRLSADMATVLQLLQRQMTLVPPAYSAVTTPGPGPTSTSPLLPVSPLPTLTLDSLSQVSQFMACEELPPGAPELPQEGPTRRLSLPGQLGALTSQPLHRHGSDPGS
Sequence of CYP2C19 (P33261 whole entry): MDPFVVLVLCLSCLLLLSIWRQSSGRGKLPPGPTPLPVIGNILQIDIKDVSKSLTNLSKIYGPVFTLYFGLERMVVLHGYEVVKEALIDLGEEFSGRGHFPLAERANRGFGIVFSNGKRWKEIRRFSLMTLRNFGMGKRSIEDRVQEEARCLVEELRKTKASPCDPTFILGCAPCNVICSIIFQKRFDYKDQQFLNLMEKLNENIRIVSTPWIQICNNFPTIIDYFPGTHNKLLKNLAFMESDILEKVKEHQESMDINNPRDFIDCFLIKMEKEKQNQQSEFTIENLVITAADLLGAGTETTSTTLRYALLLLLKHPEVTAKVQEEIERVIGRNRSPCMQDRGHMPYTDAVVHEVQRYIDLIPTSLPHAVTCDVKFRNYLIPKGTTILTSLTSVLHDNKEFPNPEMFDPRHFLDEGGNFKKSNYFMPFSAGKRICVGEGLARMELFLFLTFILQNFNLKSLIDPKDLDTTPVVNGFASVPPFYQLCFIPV
Sequence of CYP3A4 (P08684 whole entry): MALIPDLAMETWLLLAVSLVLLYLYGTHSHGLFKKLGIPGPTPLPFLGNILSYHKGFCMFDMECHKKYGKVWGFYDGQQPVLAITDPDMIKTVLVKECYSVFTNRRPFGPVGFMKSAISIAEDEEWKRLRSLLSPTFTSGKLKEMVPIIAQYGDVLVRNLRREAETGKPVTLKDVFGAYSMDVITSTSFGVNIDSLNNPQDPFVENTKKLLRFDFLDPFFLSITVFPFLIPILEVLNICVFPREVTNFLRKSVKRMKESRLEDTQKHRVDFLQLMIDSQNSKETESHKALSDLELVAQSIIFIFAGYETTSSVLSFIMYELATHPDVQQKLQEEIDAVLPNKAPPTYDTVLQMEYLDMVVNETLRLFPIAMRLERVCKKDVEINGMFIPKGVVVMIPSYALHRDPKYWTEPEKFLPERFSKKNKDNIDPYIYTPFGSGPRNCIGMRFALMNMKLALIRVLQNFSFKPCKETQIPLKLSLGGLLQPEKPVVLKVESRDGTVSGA

On to `Clc1ccc2c(NCC3CCCN4CCCCC34)ccnc2c1` (racemic) [(±)-AM1, 7-chloro-4-(N-lupinyl)aminoquinoline], for which the IC50 (usually the midpoint of a concentration-inhibition curve) was 16.1 nM in the data set on P. falciparum D10 (CQ-S), 35.4 nM in the data set with P. falciparum W-2 (CQ-R) and 29.7 nM with P. vivax field isolates. Besides, at hERG, the inhibition constant Ki (in general, the equilibrium dissociation constant of an inhibitor or competing ligand from its target) was 500 to 800 nM. Moreover, the “potency against P. vivax field isolates relative to CQ” value with P. vivax field isolates (10 field isolates, times higher than CQ) is “about 3 times”. Further, the “P. berghei ED50 (95% CI)” value with P. berghei ANKA is 2.77 (1.26–4.29) mg/kg. The “P. berghei ED90 (95% CI)” value in the data set with P. berghei ANKA is on record as 12.58 (7.69–17.46) mg/kg. The MRT last (as a rule, a mean duration of stay, worked out from the concentration-time curve) in [1] (setting [4]) worked out at 3.27 h. In [1] (setting [4]), the time to peak (Tmax) (as a rule, the time at which the peak concentration occurs) was found to be 0.5 h. Moreover, the AUC last in data set [1] (CD-1 mice, 10 mg/kg oral, single dose in SSV, plasma, 10 mg/kg) was 19.5 min·µM and 6421 min·ng/mL.
On to `Clc1ccc2c(NC[C@H]3CCCN4CCCC[C@@H]34)ccnc2c1` [(+)-AM1, 7-chloro-N-(((1R,9aS)-octahydro-1H-quinolizin-1-yl)methyl)quinolin-4-amine], for which the inhibition – broadly, the relative decrease from the control value, in per cent – at 3 µM was determined as 8.3 ± 0.8% on CYP1A2; 14.3 ± 1.9% at CYP3A4; 62.2 ± 1% at CYP2D6; 9 ± 1.1% against CYP2C19; 11.1 ± 0.5% against CYP2C9. The values for the IC50 with P. falciparum D10 (CQ-S) and in the data set on P. falciparum W-2 (CQ-R) were 17.5 nM and 35.8 nM, respectively. The “P. berghei ED90 (95% CI)” value with P. berghei ANKA is 2.03 (1.46–2.60) mg/kg. In addition, the 50% effective dose (ED50) (as a rule, the dose at which the effect has come halfway, by size or by number of responders) in the data set on P. berghei ANKA (Plasmodium berghei, 96 h, read-out: P. berghei ED50 (95% CI)) stood at 1.6 mg/kg. Moreover, the AUC(0-t) (usually exposure summed from dosing to a finite time, without extrapolation to infinity) in data set [1] (setting [5]) was 0.382 µM·h and 126 ng·h/mL. In addition, the Cmax – broadly, the peak of the concentration-time curve – in [1] (setting [5]) is 108 nM and 35.5 ng/mL. The compound also had an MRT last in data set [1] (setting [5]) of 2.7 h. Moreover, the time of peak concentration (Tmax) in data set [1] (setting [5]) is 2 h.
As to `Clc1ccc2c(NCC3CCCN4CCCCC34)ccnc2c1` (centres unmarked) [AM1, 7-chloro-4-(N-lupinyl)aminoquinoline], in [2], the LogD7.4 was 2.26. In addition, the IC50 is 29 nM with P. vivax field isolates and 16 to 53 nM in [3].
